Numbered stars: 1 amine (or outer) side, 2 acyl side, 3 side chain; on linkers, the order of the positions; unused ones are H or OH. Square brackets hold non-standard residues; d marks the D form. Peptide text beside a SMILES is read from it. X6 = CN(C)C[C@H]1C=NN([*:1])[C@H](C(=O)[*:2])C1; X5 = O=C1CC[C@@H](C(=O)[*:2])N([*:1])N1; dPiz(1,6-dehydro) = O=C(O)[C@H]1CCC=NN1; X2 = CN1CCC[C@@H](C(=O)[*:2])N1[*:1]; X1 = CN1CCC[C@H](C(=O)[*:2])N1[*:1]; X7 = O=C([C@@H]1C=CC=NN1[*:1])[*:2]; X4 = O=C([C@@H]1CCCNN1[*:1])[*:2]; X3 = O=C([C@H]1CCCNN1[*:1])[*:2]; dNMeF = CN[C@H](Cc1ccccc1)C(=O)O
Columns and labels:
Oxytocin receptor = biological target: T1, Oxytocin receptor (Rattus norvegicus, UniProt P70536); test: Binding affinity against oxytocin receptor in rat uterus
T1 sequence (P70536 whole entry): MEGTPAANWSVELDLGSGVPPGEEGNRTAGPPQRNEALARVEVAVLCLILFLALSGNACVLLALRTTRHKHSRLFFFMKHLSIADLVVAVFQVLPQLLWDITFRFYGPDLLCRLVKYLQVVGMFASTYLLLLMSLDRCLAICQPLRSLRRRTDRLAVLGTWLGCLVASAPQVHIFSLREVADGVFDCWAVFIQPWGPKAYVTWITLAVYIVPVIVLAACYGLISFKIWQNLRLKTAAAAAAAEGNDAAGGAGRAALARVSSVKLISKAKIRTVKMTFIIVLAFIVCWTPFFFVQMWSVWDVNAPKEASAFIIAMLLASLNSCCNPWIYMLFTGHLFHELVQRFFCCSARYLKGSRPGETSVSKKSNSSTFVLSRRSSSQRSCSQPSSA

Vasopressin V2 receptor = Vasopressin V2 receptor (Rattus norvegicus, UniProt Q00788); test: Binding affinity against Vasopressin receptor in rat kidney medulla
Vasopressin V2 receptor, sequence (Q00788 whole entry): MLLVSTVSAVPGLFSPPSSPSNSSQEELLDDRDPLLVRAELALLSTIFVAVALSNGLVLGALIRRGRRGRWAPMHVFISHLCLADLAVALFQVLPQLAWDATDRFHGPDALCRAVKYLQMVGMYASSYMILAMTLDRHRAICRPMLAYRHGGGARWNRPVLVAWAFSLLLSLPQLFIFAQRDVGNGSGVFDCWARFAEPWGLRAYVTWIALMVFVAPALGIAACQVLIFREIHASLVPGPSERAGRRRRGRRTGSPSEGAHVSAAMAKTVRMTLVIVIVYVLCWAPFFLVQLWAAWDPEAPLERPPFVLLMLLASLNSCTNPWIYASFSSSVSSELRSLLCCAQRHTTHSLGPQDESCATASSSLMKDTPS

Row | SMILES | Ki (Oxytocin receptor) | Ki (Vasopressin V2 receptor)
1 | CC[C@@H](C)[C@@H]1/N=C(\S)[C@@H](Cc2ccccc2)NC(=O)[C@@H]2CCCN2C(=O)[C@@H](Cc2ccccc2)N(C)C(=O)[C@@H]2CCC=NN2C(=O)[C@H]2CCC=NN2C1=O | 1.1 nM | 70 nM
2 | CC[C@H](C)[C@@H]1NC[C@@H](Cc2ccccc2)NC(=O)[C@@H]2CCCN2C(=O)[C@@H](Cc2ccccc2)N(C)C(=O)[C@@H]2CCC=NN2C(=O)[C@H]2CCC=NN2C1=O | > 30000 nM | 30000 nM
3 | CC[C@H](C)[C@@H]1NC(=O)[C@@H](Cc2ccccc2)NC(=O)[C@@H]2CCCN2C(=O)[C@@H](Cc2ccccc2)N(C)C(=O)[C@@H]2CCC(=O)NN2C(=O)[C@H]2CCC=NN2C1=O (cyclo(I[dPiz(1,6-dehydro)][X5][dNMeF]P[dF])) | 9.6 nM | 6800 nM
4 | CC[C@H](C)[C@@H]1NC(=O)[C@@H](Cc2ccccc2)NC(=O)[C@@H]2CCCN2C(=O)[C@@H](Cc2ccccc2)N(C)C(=O)[C@@H]2C[C@@H](CN(C)C)C=NN2C(=O)[C@H]2CCC=NN2C1=O (cyclo(I[dPiz(1,6-dehydro)][X6][dNMeF]P[dF])) | 3.4 nM | 1100 nM
5 | CC[C@H](C)[C@@H]1NC(=O)[C@@H](Cc2ccccc2)NC(=O)[C@@H]2CCCN2C(=O)[C@@H](Cc2ccccc2)N(C)C(=O)[C@@H]2C=CC=NN2C(=O)[C@H]2CCC=NN2C1=O (cyclo(I[dPiz(1,6-dehydro)][X7][dNMeF]P[dF])) | 8.1 nM | 580 nM

Next, values leading:

Row | Ki (Oxytocin receptor) | Ki (Vasopressin V2 receptor) | SMILES
6 | 150 nM | 3400 nM | CC[C@H](C)[C@H]1C(=O)N2NCCC[C@@H]2C(=O)N2NCCC[C@H]2C(=O)N(C)[C@H](Cc2ccccc2)C(=O)N2CCC[C@H]2C(=O)N[C@H](Cc2ccccc2)C(=O)N1O
7 | 2500 nM | 3100 nM | CC[C@H](C)[C@@H]1NC(=O)[C@@H](Cc2ccccc2)NC(=O)[C@@H]2CCCN2C(=O)[C@@H](Cc2ccccc2)N(C)C(=O)[C@@H]2CCCN(C)N2C(=O)[C@H]2CCCN(C)N2C1=O (cyclo(I[X1][X2][dNMeF]P[dF]))
8 | 89 nM | 7800 nM | CC[C@H](C)[C@@H]1NC(=O)[C@@H](Cc2ccccc2)NC(=O)[C@@H]2CCCN2C(=O)[C@@H](Cc2ccccc2)N(C)C(=O)[C@@H]2CCC(=O)NN2C(=O)[C@H]2CCCNN2C1=O (cyclo(I[X3][X5][dNMeF]P[dF]))
9 | 30 nM | 1500 nM | CC[C@H](C)[C@@H]1NC(=O)[C@@H](Cc2ccccc2)NC(=O)[C@@H]2CCCN2C(=O)[C@@H](Cc2ccccc2)N(C)C(=O)[C@@H]2CCCNN2C(=O)[C@H]2CCCNN2C1=O (cyclo([X3][X4][dNMeF]P[dF]I))

Reference: ChEMBL document CHEMBL1124890 (J Med Chem, 1990)
